Data reported in US6319702A, “Nucleic acids encoding mutant human carboxypeptidase A enzymes” (Glaxo Wellcome, Inc., priority 1993, dated 2001).
Read-outs that look alike come from different tables or passages of the source.

Experiments:
[1] = Stability and biodistribution of prodrugs in vivo (HPLC of plasma and tissues); design: species or system mice (CD-1 nude; BALB/C where indicated); settings: for concentration of prodrug in cecum / concentration of prodrug in feces / concentration of prodrug in kidney / concentration of prodrug in large intestine / concentration of prodrug in liver / concentration of prodrug in small intestine / concentration of prodrug in spleen / concentration of prodrug in tumor / remaining at 0.5 h / remaining at 2 h / concentration at 0.5 h / concentration at 2 h: 50 mg/kg i.p. or i.v., CD-1 nude mice; for remaining at 0.5 h / remaining at 2 h / concentration at 0.5 h / concentration at 2 h: mouse; for concentration at 0.5 h / concentration at 2 h: read-out: concentration of prodrug in plasma
[2] = biological target: T1, wild type human carboxypeptidase A1 (Homo sapiens, UniProt P15085); assay: Enzyme kinetics of prodrugs with wild type human carboxypeptidase A1 (coupled assay); format: biochemical
T1 sequence (P15085 111-419): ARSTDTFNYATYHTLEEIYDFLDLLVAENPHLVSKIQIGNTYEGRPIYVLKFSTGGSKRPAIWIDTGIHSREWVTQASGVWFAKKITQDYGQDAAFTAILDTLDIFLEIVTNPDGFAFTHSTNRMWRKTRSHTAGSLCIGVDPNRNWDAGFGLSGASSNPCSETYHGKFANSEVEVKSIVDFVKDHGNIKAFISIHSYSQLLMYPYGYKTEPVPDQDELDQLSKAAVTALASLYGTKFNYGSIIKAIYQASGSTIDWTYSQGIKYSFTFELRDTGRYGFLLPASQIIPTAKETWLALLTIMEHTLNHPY
Text: (§1) As indicated herein, the in vivo stable prodrug of the present invention should be a better substrate for a mutant enzyme than the corresponding wild type enzyme in order for the stable prodrug to be activated selectively at the tumour. […] The most relevant kinetic constant in the table is the kcat/Km, which provides an estimate of the second order rate constant for the enzyme catalyzed conversion of prodrug to methotrexate. Thus, the larger the kcat/Km, the more efficient the enzyme with a particular substrate. […] Thus, the single mutation at 268 from thr to gly converted very poor substrates in the wild type enzyme to excellent substrates in the mutant enzyme. […] Thus, the compounds are much better substrates for the mutant enzyme than the wild type enzyme which permits very specific tumor targeted activation of the nontoxic, stable prodrug to the active agent.
(§2) Kinetics were determined by a modification of the coupled assay of Kuefner, et al (1989) Biochemistry 28 2288-2297 in which the product MTX is converted by excess carboxypeptidase G to the pteroate of MTX. In this assay the reaction is followed spectrophotometrically at 315 nm; at this wavelength the change in molar absorbtivity for the coupled reaction was determined to be 9.57 mM^-1 cm^-1. Assays were performed at 25° C. in 25 mM tris-HCl, 100 mM NaCl, pH 7.4. Prodrugs were preincubated at 25° C. with buffer and 17 milliunits of Sigma #C-9658 carboxypeptidase G in 1 ml total volume. Assay was initiated with carboxypeptidase A or the appropriate mutant. Initial velocities were obtained, and standard Michaelis-Menten calculations were used to determine kinetic constants (in Biochemistry, Lehninger, A. L. 1970, Worth Publishers, Inc, NY).

268gly = assay: Enzyme kinetics of prodrugs with 268gly mutant of human CPA1 (coupled assay); format: biochemical; settings: 268gly; 25° C., pH 7.4
Text: as §1, §2

268ala = assay: Enzyme kinetics of prodrugs with 268ala mutant of human CPA1 (coupled assay); format: biochemical; settings: 25° C., pH 7.4
Text: as §1, §2

[3] = cecum, 50 mg/kg, CECUM, 30 min, read-out: stability: percentage of material observed as intact prodrug, cecum
[4] = cecum, 50 mg/kg, CECUM, 120 min, read-out: stability: percentage of material observed as intact prodrug, cecum
[5] = kidney, 50 mg/kg, KIDNEY, 30 min, read-out: stability: percentage of material observed as intact prodrug, kidney
[6] = kidney, 50 mg/kg, KIDNEY, 120 min, read-out: stability: percentage of material observed as intact prodrug, kidney
[7] = large intestine, 50 mg/kg, LARGE INTESTINE, 30 min, read-out: stability: percentage of material observed as intact prodrug, large intestine
[8] = large intestine, 50 mg/kg, LARGE INTESTINE, 120 min, read-out: stability: percentage of material observed as intact prodrug, large intestine
[9] = liver, 50 mg/kg, LIVER, 30 min, read-out: stability: percentage of material observed as intact prodrug, liver (converted)
[10] = liver, 50 mg/kg, LIVER, 120 min, read-out: stability: percentage of material observed as intact prodrug, liver
[11] = plasma, 50 mg/kg, PLASMA, 30 min
[12] = plasma, 50 mg/kg, PLASMA, 30 min, read-out: stability: percentage of material observed as intact prodrug, plasma
[13] = plasma, 50 mg/kg, PLASMA, 120 min
[14] = plasma, 50 mg/kg, PLASMA, 120 min, read-out: stability: percentage of material observed as intact prodrug, plasma
[15] = small intestine, 50 mg/kg, SMALL INTESTINE, 30 min, read-out: stability: percentage of material observed as intact prodrug, small intestine
[16] = small intestine, 50 mg/kg, SMALL INTESTINE, 120 min, read-out: stability: percentage of material observed as intact prodrug, small intestine
[17] = spleen, 50 mg/kg, SPLEEN, 30 min, read-out: stability: percentage of material observed as intact prodrug, spleen
[18] = spleen, 50 mg/kg, SPLEEN, 120 min, read-out: stability: percentage of material observed as intact prodrug, spleen
[19] = tumor, 50 mg/kg, TUMOR, 30 min, read-out: stability: percentage of material observed as intact prodrug, tumor
[20] = tumor, 50 mg/kg, TUMOR, 120 min, read-out: stability: percentage of material observed as intact prodrug, tumor

| concentration of prodrug in cecum ([1]; CECUM, 30 min) | concentration of prodrug in kidney ([1]; KIDNEY, 30 min) | concentration of prodrug in kidney ([1]; KIDNEY, 120 min) | concentration of prodrug in large intestine ([1]; LARGE INTESTINE, 30 min) | concentration of prodrug in large intestine ([1]; LARGE INTESTINE, 120 min) | concentration of prodrug in liver ([1]; LIVER, 30 min) | concentration of prodrug in liver ([1]; LIVER, 120 min) | concentration of prodrug in small intestine ([1]; SMALL INTESTINE, 30 min) | concentration of prodrug in spleen ([1]; SPLEEN, 30 min) | concentration of prodrug in tumor ([1]; TUMOR, 30 min) | remaining at 0.5 h [1, 3] | remaining at 0.5 h [1, 5] | remaining at 0.5 h [1, 7] | remaining at 2 h [1, 8] | remaining at 0.5 h [1, 9] | remaining at 2 h [1, 10] | concentration at 0.5 h [1, 11] | remaining at 0.5 h [1, 12] | concentration at 2 h [1, 13] | remaining at 2 h [1, 14] | Structure (SMILES) | also measured |
| --- | --- | --- | --- | --- | --- | --- | --- | --- | --- | --- | --- | --- | --- | --- | --- | --- | --- | --- | --- | --- | --- |
| 7.5 nmol/g | 93.4 nmol/g | 12.6 nmol/g | 5.7 nmol/g | 19.4 nmol/g | 287.8 nmol/g | 161.6 nmol/g | 21.3 nmol/g | 3.4 nmol/g | 7.5 nmol/g | 82% | 98% | 100% | 65% | 97% | 93% | 46.7 µM | 100% | 2000 nM | 100% | CN(Cc1cnc2nc(N)nc(N)c2n1)c1ccc(C(=O)N[C@@H](CCC(=O)O)C(=O)N[C@@H](CC(=O)O)C(=O)O)cc1 [Prodrug 6] | concentration of prodrug in cecum ([1]; CECUM, 120 min): 0.8 nmol/g; concentration of prodrug in feces ([1]; FECES, 30 min): 42 nmol/g; concentration of prodrug in feces ([1]; FECES, 120 min): 207 nmol/g; concentration of prodrug in small intestine ([1]; SMALL INTESTINE, 120 min): 14.2 nmol/g; concentration of prodrug in spleen ([1]; SPLEEN, 120 min): 0.0 nmol/g; concentration of prodrug in tumor ([1]; TUMOR, 120 min): 0.8 nmol/g; remaining at 2 h [1, 4]: 59%; remaining at 0.5 h ([1]; feces, 50 mg/kg, FECES, 30 min, read-out: stability: percentage of material observed as intact prodrug, feces (converted)): 21%; remaining at 2 h ([1]; feces, 50 mg/kg, FECES, 120 min, read-out: stability: percentage of material observed as intact prodrug, feces): 52%; remaining at 2 h [1, 6]: 98%; remaining at 0.5 h [1, 15]: 86%; remaining at 2 h [1, 16]: 54%; remaining at 0.5 h [1, 17]: 70%; remaining at 2 h [1, 18]: 0%; remaining at 0.5 h [1, 19]: 82%; remaining at 2 h [1, 20]: 59% |
| 6.9 nmol/g | 55.4 nmol/g | 3.8 nmol/g | 12.1 nmol/g | 91.8 nmol/g | 171.9 nmol/g | 7.5 nmol/g | 127.4 nmol/g | 12.4 nmol/g | 6.9 nmol/g | 100% | 100% | 100% | 100% | 100% | 89% | 51.4 µM | 100% | 200 nM | 100% | CN(Cc1cnc2nc(N)nc(N)c2n1)c1ccc(C(=O)N[C@@H](CCC(=O)O)C(=O)N[C@@H](Cc2ccccc2C(=O)O)C(=O)O)cc1 [Prodrug 7] | concentration of prodrug in cecum ([1]; CECUM, 120 min): 1.5 nmol/g; concentration of prodrug in small intestine ([1]; SMALL INTESTINE, 120 min): 24.1 nmol/g; concentration of prodrug in spleen ([1]; SPLEEN, 120 min): 1.0 nmol/g; concentration of prodrug in tumor ([1]; TUMOR, 120 min): 1.5 nmol/g; remaining at 2 h [1, 4]: 100%; remaining at 2 h [1, 6]: 100%; remaining at 0.5 h [1, 15]: 100%; remaining at 2 h [1, 16]: 97%; remaining at 0.5 h [1, 17]: 100%; remaining at 2 h [1, 18]: 100%; remaining at 0.5 h [1, 19]: 100%; remaining at 2 h [1, 20]: 100% |
| 3.0 nmol/g | 26.9 nmol/g | 0.0 nmol/g | 19.3 nmol/g | 1.1 nmol/g | 335.1 nmol/g | 0.6 nmol/g | 17.3 nmol/g | 19.9 nmol/g | 3.0 nmol/g | 65% | 100% | 65.3% | 21.6% | 94.4% | 7.55% | 17.8 µM | 30.2% | 1100 nM | 2.1% | CN(Cc1cnc2nc(N)nc(N)c2n1)c1ccc(C(=O)N[C@@H](CCC(=O)O)C(=O)N[C@@H](Cc2ccccc2)C(=O)O)cc1 [Prodrug 10, N-(4-(((2,4-diamino-6-pteridinyl)methyl)methylamino)benzoyl)-L-glutam-1-yl-L-pheylalanine, reference compound] | substrate for wild type CPA (in words) [2]: good substrate; Km (268gly): 300 nM; kcat (268gly): 2.2 s⁻¹; Km (268ala): 900 nM; kcat (268ala): 2 s⁻¹; stability in vivo (in words) ([1]; mice, 50 mg/kg): not stable in vivo; remaining at 0.5 h [1, 15]: 16%; remaining at 2 h [1, 16]: 0%; remaining at 0.5 h [1, 17]: 80.4%; remaining at 0.5 h [1, 19]: 65% |
